Results as given in the supplement of paper PMC9663587.

How the values were obtained:
Assay in all cases: area over the GR curve, 72 h; higher = more effect;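 note: Dye Drop or Deep Dye Drop imaging of viable cells in 384-well plates (Hoechst nuclei, LIVE/DEAD dye), nine half-log doses, GR normalized to DMSO controls and time-zero plates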
UACC893 = system: UACC893
HCC38 = system: HCC38
MCF7 = system: MCF7
SUM52PE = system: SUM52PE
MDAMB231 = system: MDAMB231
SUM229PE = system: SUM229PE
BT474 = system: BT474
SUM159 = system: SUM159
HS578T = system: HS578T
HCC1143 = system: HCC1143
T47D = system: T47D
EFM19 = system: EFM19
HCC1569 = system: HCC1569

Cc1nn(C)c(COc2ccc(N3CCN(S(=O)(=O)N(C)C)CC3)cc2)c1-c1cccc2c(CCCOc3cccc4ccccc34)c(C(=O)O)n(CCN3CCOCC3)c12 (max 10 µM)
area over the GR curve (UACC893): -0.0074 GR
area over the GR curve (HCC38): 0.0151 GR
area over the GR curve (MCF7): -0.0002 GR
area over the GR curve (SUM52PE): 0.0586 GR
area over the GR curve (MDAMB231): 0.0519 GR
area over the GR curve (SUM229PE): 0.0397 GR
area over the GR curve (BT474): -0.0275 GR
area over the GR curve (SUM159): -0.0068 GR
area over the GR curve (HS578T): -0.0079 GR
area over the GR curve (HCC1143): 0.064 GR
area over the GR curve (T47D): 0.0143 GR
area over the GR curve (EFM19): -0.0581 GR
area over the GR curve (HCC1569): -0.0353 GR

C=CC(=O)Nc1ccc(C(=O)Nc2[nH]nc3c2CN(C(=O)N[C@H](CN(C)C)c2ccccc2)C3(C)C)cc1 [YKL-5-124] (max 10 µM)
area over the GR curve (UACC893): 0.765 GR
area over the GR curve (HCC38): 0.928 GR
area over the GR curve (MCF7): 0.806 GR
area over the GR curve (SUM52PE): 0.564 GR
area over the GR curve (MDAMB231): 0.878 GR
area over the GR curve (SUM229PE): 0.744 GR
area over the GR curve (BT474): 0.944 GR
area over the GR curve (SUM159): 0.857 GR
area over the GR curve (HS578T): 0.815 GR
area over the GR curve (HCC1143): 0.788 GR
area over the GR curve (T47D): 0.872 GR
area over the GR curve (EFM19): 0.8 GR
area over the GR curve (HCC1569): 0.736 GR

Cc1cc(C(C)Nc2ccccc2)c2nc(N3CCOCC3)cc(=O)n2c1 (configuration not stated) [TGX221] (max 10 µM)
area over the GR curve (UACC893): -0.111 GR
area over the GR curve (HCC38): -0.0299 GR
area over the GR curve (MCF7): -0.0083 GR
area over the GR curve (SUM52PE): 0.0531 GR
area over the GR curve (MDAMB231): 0.0141 GR
area over the GR curve (SUM229PE): -0.0167 GR
area over the GR curve (BT474): -0.0718 GR
area over the GR curve (SUM159): -0.0235 GR
area over the GR curve (HS578T): 0.0668 GR
area over the GR curve (HCC1143): 0.0331 GR
area over the GR curve (T47D): -0.0193 GR
area over the GR curve (EFM19): 0.0431 GR
area over the GR curve (HCC1569): 0.0644 GR

CC1(N)CCN(c2cnc(-c3cccc(Cl)c3Cl)c(N)n2)CC1 [SHP099] (max 10 µM)
area over the GR curve (UACC893): -0.0199 GR
area over the GR curve (HCC38): 0.172 GR
area over the GR curve (MCF7): 0.0308 GR
area over the GR curve (SUM52PE): -0.0423 GR
area over the GR curve (MDAMB231): -0.0083 GR
area over the GR curve (SUM229PE): -0.0033 GR
area over the GR curve (BT474): -0.022 GR
area over the GR curve (SUM159): 0.0503 GR
area over the GR curve (HS578T): 0.142 GR
area over the GR curve (HCC1143): 0.0677 GR
area over the GR curve (T47D): 0.0099 GR
area over the GR curve (EFM19): -0.0009 GR
area over the GR curve (HCC1569): -0.114 GR
